According to patent US9155778B2, “Tripeptides that down regulate the activity of plasma membrane transporters including sodium-D-glucose cotransporter SgIt1” (JULIUS-MAXMILLIANS-UNIVERSITAT WURZBURG, priority 2005, dated 2015):

Tests used:
hSGLT1 [1] = target: T1, hSGLT1 (Homo sapiens, UniProt P13866); test: hSGLT1 expressed [14C]AMG uptake in Xenopus oocytes after injection of hRS1 protein or peptides; format: cell-based
T1 construct: expressed in transfected cells; host or cells: Xenopus laevis oocytes (cRNA injection)
T1 sequence (P13866 1-664): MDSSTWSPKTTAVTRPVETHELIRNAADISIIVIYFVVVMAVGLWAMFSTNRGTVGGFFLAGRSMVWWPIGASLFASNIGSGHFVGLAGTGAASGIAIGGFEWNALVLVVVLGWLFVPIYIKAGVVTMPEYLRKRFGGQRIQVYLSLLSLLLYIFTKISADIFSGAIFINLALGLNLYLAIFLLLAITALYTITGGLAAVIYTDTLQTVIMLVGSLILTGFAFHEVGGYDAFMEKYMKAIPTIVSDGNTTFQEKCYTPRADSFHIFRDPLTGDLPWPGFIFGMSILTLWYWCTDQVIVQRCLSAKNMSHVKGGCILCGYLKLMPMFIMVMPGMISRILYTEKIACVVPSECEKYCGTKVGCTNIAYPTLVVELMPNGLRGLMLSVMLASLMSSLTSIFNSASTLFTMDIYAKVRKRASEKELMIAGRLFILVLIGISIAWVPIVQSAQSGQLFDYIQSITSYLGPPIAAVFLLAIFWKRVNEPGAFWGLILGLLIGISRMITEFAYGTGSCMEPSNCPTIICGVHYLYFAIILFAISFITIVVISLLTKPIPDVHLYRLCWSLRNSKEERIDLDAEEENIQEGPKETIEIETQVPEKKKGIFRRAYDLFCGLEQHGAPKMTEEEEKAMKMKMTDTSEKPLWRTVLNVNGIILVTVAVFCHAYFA

hPEPT1 = target: T2, hPEPT1 (Homo sapiens, UniProt P46059); test: Electrogenic peptide transport by hPEPT1 in oocytes, two-electrode voltage clamp; format: cell-based; conditions: pH 6.5
T2 construct: expressed in transfected cells; host or cells: Xenopus laevis oocytes (30 ng cRNA per oocyte)
T2 sequence (P46059 1-708): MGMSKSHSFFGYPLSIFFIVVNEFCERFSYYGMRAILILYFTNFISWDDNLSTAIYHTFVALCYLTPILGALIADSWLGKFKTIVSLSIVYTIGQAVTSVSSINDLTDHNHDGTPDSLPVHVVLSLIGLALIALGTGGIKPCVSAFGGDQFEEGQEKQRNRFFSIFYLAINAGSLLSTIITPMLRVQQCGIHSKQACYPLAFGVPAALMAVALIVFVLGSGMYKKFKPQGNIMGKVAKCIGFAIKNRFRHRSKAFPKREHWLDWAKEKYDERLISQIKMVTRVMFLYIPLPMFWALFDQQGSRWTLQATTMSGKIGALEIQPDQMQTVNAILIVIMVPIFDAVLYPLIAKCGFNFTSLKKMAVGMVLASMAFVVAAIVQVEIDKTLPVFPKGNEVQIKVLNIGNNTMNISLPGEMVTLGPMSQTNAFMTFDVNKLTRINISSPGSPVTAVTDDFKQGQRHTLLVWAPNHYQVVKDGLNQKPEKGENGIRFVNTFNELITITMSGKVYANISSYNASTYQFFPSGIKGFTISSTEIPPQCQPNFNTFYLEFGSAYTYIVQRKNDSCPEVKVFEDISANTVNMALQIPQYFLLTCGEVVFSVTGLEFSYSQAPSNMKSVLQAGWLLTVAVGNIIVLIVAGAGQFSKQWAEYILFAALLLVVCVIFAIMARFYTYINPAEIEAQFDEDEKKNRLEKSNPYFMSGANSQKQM
Method: (§1) The oocytes were incubated for three days at 16° C. in ORi buffer (in mM: 5 HEPES-Tris, pH 7.4, 100 NaCl, 3 KCl, 2 CaCl2, and 1 MgCl2). […] The oocytes were superfused with Ori buffer titrated to pH 6.5, the membrane potential of the oocytes was clamped to −40 mV, and inward current induced by superfusion with Ori buffer (pH 6.5) containing 5 mM of a control dipeptide or 5 mM of the tested tripeptide was measured. • (D) Expression and Purification of hRS1

hSGLT1 [2] = target: T1, hSGLT1; test: [14C]AMG uptake in oocytes after incubation with tripeptide in the medium; format: cell-based; conditions: pH 6.5
Method: In a different experimental setup, oocytes were injected with SGLT1 cRNA (2.5 ng per oocyte) or with hSGLT1 cRNA (2.5 ng per oocyte) plus hPEPT1 cRNA (10 ng per oocyte) and the oocytes were incubated 3 days for expression. Thereafter the oocytes were incubated 30 min with Ori buffer adjusted to pH 6.5 or with Ori buffer adjusted to pH 6.5 containing 3 mM of the tested tripeptide. Thereafter oocytes were washed with Ori buffer (pH 7.4) and uptake of [^14C]AMG was measured. • (F) Measurements of [^14C]AMG Uptake
Uptake measurements were performed as described (Veyhl (2003), J. Membrane Biol., 196, 71-81). Oocytes were incubated for 15 min at room temperature in ORi buffer containing 50 μM [^14C]AMG without or with 100 μM of the SGLT1 inhibitor phlorizin. The uptake was blocked and oocytes were washed with ice cold Ori buffer containing 100 μM phlorizin. Radioactivity in the oocytes was measured by liquid scintillation counting.
Thereafter the oocytes were washed with neutral Ori buffer and the hSGLT1 expressed uptake of 50 μM [^14C]AMG was measured (FIG. 7). […] Incubation of oocytes expressing hSGLT1 plus hPEPT1 with PCQ had no effect on the expressed uptake of [^14C]AMG.

rbSGLT1 = target: T3, rbSGLT1 (Oryctolagus cuniculus, UniProt P11170); test: rbSGLT1 expressed [14C]AMG uptake in oocytes after peptide injection; format: cell-based, rabbit; conditions: 50 nl containing 3 mM of each peptide, 30 min, 50 μM [14C]AMG; compared with hSGLT1
T3 construct: expressed in transfected cells; host or cells: Xenopus laevis oocytes (cRNA injection)
T3 sequence (P11170 1-662): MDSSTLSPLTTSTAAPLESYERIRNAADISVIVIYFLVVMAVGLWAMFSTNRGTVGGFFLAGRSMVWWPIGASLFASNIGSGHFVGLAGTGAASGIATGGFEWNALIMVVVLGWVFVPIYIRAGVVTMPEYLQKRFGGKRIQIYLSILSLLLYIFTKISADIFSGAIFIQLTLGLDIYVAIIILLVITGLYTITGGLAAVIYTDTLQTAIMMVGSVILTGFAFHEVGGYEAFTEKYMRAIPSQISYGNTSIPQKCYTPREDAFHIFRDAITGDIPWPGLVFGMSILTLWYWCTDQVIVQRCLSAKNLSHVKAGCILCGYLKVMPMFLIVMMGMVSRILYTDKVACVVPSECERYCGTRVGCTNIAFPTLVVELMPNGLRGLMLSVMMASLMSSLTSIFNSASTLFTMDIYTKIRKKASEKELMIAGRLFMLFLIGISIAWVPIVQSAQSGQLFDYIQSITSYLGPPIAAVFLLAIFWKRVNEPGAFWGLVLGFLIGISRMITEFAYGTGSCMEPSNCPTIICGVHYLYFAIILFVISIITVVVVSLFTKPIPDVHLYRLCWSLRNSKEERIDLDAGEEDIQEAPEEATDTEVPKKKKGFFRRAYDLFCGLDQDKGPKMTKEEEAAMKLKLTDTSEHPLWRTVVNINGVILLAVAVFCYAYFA
Method: as §1
To develop drugs on the basis of the identified peptides animal models are required.

hOCT2 = hOCT2 (Homo sapiens, UniProt O15244); conditions: intracellular AMG 0.1 mM, <0.01 mM or 10 mM
Method: Corresponding measurements were performed in the presence of intracellular AMG concentrations of 0.1 mM, <0.01 mM or 10 mM.

SGLT1 = SGLT1 (Mus musculus, UniProt Q8C3K6); conditions: 60 min pre-incubation, pH 6.5, 3 mM QCP, 0.1 mM D-glucose
Method: Walls of small intestinal mucosa from mice are inserted into an Ussing chamber and the SGLT1 mediated transepitehila currents are measured that are induced by addition of 0.1 mM D-glucose to the mucosal side. […] After washing glucose-induced transepithelial currents are measured.

[3] = system: sodium dependent amino acid transporters; conditions: 60 min, pH 6.5, 3 mM QCP; 10 mM amino acids
Method: Walls of small intestinal mucosa from mice are inserted into an Ussing chamber and transepitehial currents are measured that are induced by addition of 10 mM of various amino acids to the mucosal side.

[4] = drinking water pH 6.0 with 10 mM QCP, 2 months, standard chow or sugar low diet
Description: The body weight development with and without peptide treatment is compared over 2 months. […] In corresponding experiments, rabbits are to be employed.

SGLT1, sequence (Q8C3K6 whole entry): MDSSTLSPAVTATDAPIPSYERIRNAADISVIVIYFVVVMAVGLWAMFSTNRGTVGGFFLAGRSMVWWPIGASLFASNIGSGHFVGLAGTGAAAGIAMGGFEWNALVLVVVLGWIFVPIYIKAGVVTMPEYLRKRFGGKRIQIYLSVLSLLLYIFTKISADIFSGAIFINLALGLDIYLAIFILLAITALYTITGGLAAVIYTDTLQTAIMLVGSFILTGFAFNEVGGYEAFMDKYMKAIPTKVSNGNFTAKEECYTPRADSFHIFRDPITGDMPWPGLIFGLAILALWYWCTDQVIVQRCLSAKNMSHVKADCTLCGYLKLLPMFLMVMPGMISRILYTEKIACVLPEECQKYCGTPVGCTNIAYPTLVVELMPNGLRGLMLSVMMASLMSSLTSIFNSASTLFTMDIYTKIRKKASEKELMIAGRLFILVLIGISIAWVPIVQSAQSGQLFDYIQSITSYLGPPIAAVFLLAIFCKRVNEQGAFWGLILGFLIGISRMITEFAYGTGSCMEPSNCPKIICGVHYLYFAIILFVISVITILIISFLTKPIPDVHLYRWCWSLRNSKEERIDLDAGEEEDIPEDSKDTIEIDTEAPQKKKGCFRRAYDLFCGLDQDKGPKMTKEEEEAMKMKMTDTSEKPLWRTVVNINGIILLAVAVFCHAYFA
hOCT2, sequence (O15244 whole entry): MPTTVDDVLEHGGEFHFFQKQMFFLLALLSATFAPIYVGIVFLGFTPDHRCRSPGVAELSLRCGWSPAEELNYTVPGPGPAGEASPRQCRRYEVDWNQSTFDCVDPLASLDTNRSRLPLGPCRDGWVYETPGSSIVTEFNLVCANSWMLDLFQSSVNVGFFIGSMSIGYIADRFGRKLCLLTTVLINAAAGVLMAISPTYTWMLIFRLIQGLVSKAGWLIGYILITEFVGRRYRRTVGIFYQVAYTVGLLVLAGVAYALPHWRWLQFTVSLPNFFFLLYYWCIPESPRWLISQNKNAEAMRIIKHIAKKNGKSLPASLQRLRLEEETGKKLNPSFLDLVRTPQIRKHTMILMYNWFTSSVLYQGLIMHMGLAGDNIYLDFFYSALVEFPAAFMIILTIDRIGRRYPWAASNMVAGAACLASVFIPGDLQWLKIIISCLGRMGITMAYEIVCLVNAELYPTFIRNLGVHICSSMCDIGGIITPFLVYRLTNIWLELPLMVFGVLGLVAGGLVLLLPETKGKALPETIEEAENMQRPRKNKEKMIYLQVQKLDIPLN

For Glutamine-Cysteine-Proline [QCP], the “inhibition of AMG uptake in the absence of BTXB” value (hSGLT1 [1]) was “inhibited”, the “inhibition of AMG uptake in the presence of BTXB” value (hSGLT1 [1]) was “no significant inhibition” and the “inhibition of glucose uptake expressed by hSGLT1” value (hSGLT1 [1]) was “about 50%”. The “inhibition of hSGLT1 expressed AMG uptake” value (hSGLT1 [1]) was 35-40%, the “inhibition of hSGLT1 expressed AMG uptake after stimulation of protein kinase C” value (hSGLT1 [1]) was “not changed” and the “inhibition of hSGLT1 expressed AMG uptake with coexpressed dominant negative mutant of dynamin I” value (hSGLT1 [1]) was “not changed”. The “inhibition of hSGLT1 expressed uptake of AMG after 3 h” value (hSGLT1 [1]) was 60%, the “inhibition of hSGLT1 expressed uptake of AMG after 5 h” value (hSGLT1 [1]) was “about 40%” and the “inhibition of hSGLT1 expressed uptake of AMG after 10 h” value (hSGLT1 [1]) was 20-30%. The “inhibition of hSGLT1 in dependence of intracellular monosaccharide concentration” value (hSGLT1 [1]) was “inhibits hSGLT1 at low or high concentrations of intracellular monosaccharides”, the “inhibitory effect on expression of hSGLT1 when the exocytotic pathway is blocked” value (hSGLT1 [1]) was “could be prevented” and the “intracellular concentration of QCP giving 35-40% inhibition of hSGLT1 expressed glucose uptake” value (hSGLT1 [1]) was “below 5 nM”. For the same substance, the “inward current in control oocytes not injected with hPEP1-cRNA” value (hPEPT1) was “no inward currents”, the “inward current induced in oocytes expressing hPEPT1” value (hPEPT1) was “significant inward currents” and the “effect on AMG uptake in oocytes in which hSGLT1 but not hPEPT1 was expressed” value (hSGLT1 [2]) was “no effect”. The “inhibition of [14C]AMG uptake in oocytes expressing hSGLT1 plus hPEPT1” value (hSGLT1 [2]) was “about 50%”, the “effect on glucose uptake expressed by rbSGLT1” value (rbSGLT1) was “same effect” and the “hOCT2 expressed [14C]TEA uptake after injection” value (hOCT2) was “appears not to be inhibited”. The transepithelial glucose flux (SGLT1) was “inhibits transepithelial glucose flux”, the “transepithelial flux of amino acids” value [3] was “inhibits transepithelial flux of amino acids” and the “body weight after feeding” value [4] was “body weight is reduced”.
